Measurements published in PMC6100557, “Quinazolinone-Amino Acid Hybrids as Dual Inhibitors of EGFR Kinase and Tubulin Polymerization” (Molecules : A Journal of Synthetic Chemistry and Natural …, 2018).
“Also recorded” adds a separate entry of the source. Read-outs that look alike come from different tables or passages of the source.

What was measured:
MCF-7 = test: In vitro cytotoxic screening (MTT assay), MCF-7; format: cell-based; conditions: Homo sapiens, read-out: IC50 (µM) MCF-7
Description: (§1) Cells were cultured using reported culture media, incubated for 24 h, treated with different concentrations of tested derivatives and incubated for 48 h. MTT was added to extract the color, which was then measured by ELISA [12].

MDA-MBA-231 = test: In vitro cytotoxic screening (MTT assay), MDA-MBA-231; format: cell-based; conditions: read-out: IC50 (µM) MDA-MBA-231
Description: as §1

[1] = tested on: MCF-7 and MDA-MBA-231 cells; test: Cytotoxic screening on the two cell lines, selectivity MCF-7 versus MDA-MBA-231; format: cell-based; conditions: for Selectivity Indices S1: S1 = IC50 (MCF-7)/IC50 (MDA-MBA-231); for Cell Line (type of selectivity): S1 > S2: more selective to MDA-MBA-231, S2 > S1: more selective to MCF-7; for Selectivity Indices S2: S2 = IC50 (MDA-MBA-231)/IC50 (MCF-7)
Description: as §1

EGFR kinase = EGFR kinase (Homo sapiens, UniProt P00533); test: EGFR inhibition assay (HTScan EGFR kinase assay kit)
Description: High tech HTScan EGFR kinase assay kits (Cell Signaling Technology, Danvers, MA, USA) were used to measure EGFR kinase activity. The assay was achieved following the manufacturers’ instructions and reported procedures [16, 23].

porcine tubulin protein = target: T1, porcine tubulin protein (Sus scrofa, UniProt P02550+P02554); test: Tubulin polymerization inhibition assay (CytoDYNAMIX Screen kit); format: biochemical; conditions: absorbance 340 nm, 30 min, 37 °C
T1 construct: purchased Cytoskeleton Inc. BK006P
Description: Cold porcine tubulin protein (>99% purity) was added to a G-PEM buffer (80 mM PIPES, 2 mM MgCl2, 0.5 mM EGTA, 1 mM GTP, pH 6.9) containing 15% glycerol with or without the identified compounds. […] The absorbance was monitored every minute for 30 min at 340 nm [16, 23].

[2] = MCF7, MTT assay, 48 h incubation, mean ± SD
[3] = MTT assay, 48 h incubation, mean ± SD

EGFR kinase, sequence (P00533 672-1210 limits assumed): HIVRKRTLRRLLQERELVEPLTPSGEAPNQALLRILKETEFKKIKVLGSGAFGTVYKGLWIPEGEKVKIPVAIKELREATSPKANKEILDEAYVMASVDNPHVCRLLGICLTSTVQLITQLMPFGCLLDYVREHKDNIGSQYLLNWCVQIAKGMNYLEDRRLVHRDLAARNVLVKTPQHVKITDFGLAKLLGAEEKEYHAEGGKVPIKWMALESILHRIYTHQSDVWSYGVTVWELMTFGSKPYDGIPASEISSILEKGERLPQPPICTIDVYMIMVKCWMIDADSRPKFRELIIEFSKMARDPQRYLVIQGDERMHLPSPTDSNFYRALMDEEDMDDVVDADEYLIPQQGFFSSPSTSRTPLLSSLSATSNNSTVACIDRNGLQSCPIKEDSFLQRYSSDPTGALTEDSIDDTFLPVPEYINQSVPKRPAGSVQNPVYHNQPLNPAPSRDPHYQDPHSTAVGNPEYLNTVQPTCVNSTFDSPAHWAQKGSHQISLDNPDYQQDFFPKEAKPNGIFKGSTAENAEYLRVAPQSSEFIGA
T1 sequence (P02550 whole entry): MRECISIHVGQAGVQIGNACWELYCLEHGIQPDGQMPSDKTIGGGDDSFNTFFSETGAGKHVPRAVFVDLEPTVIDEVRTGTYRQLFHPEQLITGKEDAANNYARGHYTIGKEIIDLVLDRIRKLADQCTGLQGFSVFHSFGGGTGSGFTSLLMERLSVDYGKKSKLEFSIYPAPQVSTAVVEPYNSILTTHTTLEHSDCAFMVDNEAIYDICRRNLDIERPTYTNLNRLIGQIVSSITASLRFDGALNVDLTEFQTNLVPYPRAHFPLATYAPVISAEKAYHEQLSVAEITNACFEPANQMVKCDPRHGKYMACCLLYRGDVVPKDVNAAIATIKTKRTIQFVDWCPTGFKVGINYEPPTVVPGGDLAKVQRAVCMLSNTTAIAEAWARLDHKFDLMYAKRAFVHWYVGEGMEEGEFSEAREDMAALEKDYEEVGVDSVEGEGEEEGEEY
T1 sequence (P02554 whole entry): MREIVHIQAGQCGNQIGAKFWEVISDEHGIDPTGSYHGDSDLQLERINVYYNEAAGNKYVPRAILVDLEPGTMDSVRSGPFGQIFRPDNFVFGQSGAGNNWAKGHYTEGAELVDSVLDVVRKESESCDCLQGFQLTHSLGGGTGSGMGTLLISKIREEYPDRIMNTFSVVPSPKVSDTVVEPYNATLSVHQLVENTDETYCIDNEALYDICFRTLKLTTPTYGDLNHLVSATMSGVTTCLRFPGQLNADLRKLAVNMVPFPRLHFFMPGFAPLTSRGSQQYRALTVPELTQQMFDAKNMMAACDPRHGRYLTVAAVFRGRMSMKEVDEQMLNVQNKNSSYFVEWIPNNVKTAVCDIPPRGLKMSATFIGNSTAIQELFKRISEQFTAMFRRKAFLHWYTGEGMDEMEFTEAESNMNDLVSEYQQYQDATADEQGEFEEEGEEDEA

Structure (SMILES) | IC50 (MCF-7; [2]) [µM] | IC50 (MDA-MBA-231; [3]) [µM] | Selectivity Indices S1 [1] | Cell Line (type of selectivity) [1] | Selectivity Indices S2 [1] | melting point [°C] | IC50 (MCF-7; MCF7, 48 h) [µM] | IC50 (MDA-MBA-231; 48 h) [µM] | IC50 (EGFR kinase) [µM] | IC50 (porcine tubulin protein) [µM]
N[C@H](CS)C(=O)Nn1c(-c2ccc(F)cc2)nc2ccc(F)cc2c1=O [F, (S)-2-amino-N-(6-fluoro-2-(4-fluorophenyl)-4-oxoquinazolin-3(4H)-yl)-3-mercaptopropanamide] | 1.93 ± 0.08 | 12.5 ± 5.88 | 0.15 ± 0.17 | more selective to MCF-7 than MDA-MBA-231; also recorded: MCF-7 selective | 6.46 ± 0.04 | 220 to 222 | – | – | – | –
CC(C)[C@H](N)C(=O)Nn1c(-c2ccc(F)cc2)nc2ccc(F)cc2c1=O [C, (S)-2-amino-N-(6-fluoro-2-(4-fluorophenyl)-4-oxoquinazolin-3(4H)-yl)-3-methylbutanamide] | 1.16 ± 0.05 | 3.45 ± 0.21 | 0.34 ± 0.18 | more selective to MCF-7 than MDA-MBA-231; also recorded: MCF-7 selective | 2.98 ± 0.71 | 242 to 244 | – | – | – | –
C[C@H](N)C(=O)Nn1c(-c2ccc(F)cc2)nc2ccc(F)cc2c1=O [Compound B, (S)-2-amino-N-(6-fluoro-2-(4-fluorophenyl)-4-oxoquinazolin-3(4H)-yl)propanamide] | 68.5 ± 3.27 | 42.9 ± 2.64 | 1.59 ± 0.05 | more selective to MDA-MBA-231 than MCF-7; also recorded: MDA-MBA-231 selective | 0.63 ± 0.23 | 238 to 240 | – | – | – | –
CCC(C)[C@H](N)C(=O)Nn1c(-c2ccc(F)cc2)nc2ccc(F)cc2c1=O (stereo partly drawn) [D, (2S)-2-amino-N-(6-fluoro-2-(4-fluorophenyl)-4-oxoquinazolin-3(4H)-yl)-3-methylpentanamide] | 11.3 ± 1.25 | 7.49 ± 0.42 | 1.51 ± 0.24 | more selective to MDA-MBA-231 than MCF-7; also recorded: MDA-MBA-231 selective | 0.66 ± 0.17 | 248 to 250 | – | – | – | –
C#Cc1cccc(Nc2ncnc3cc(OCCOC)c(OCCOC)cc23)c1 [Erlotinib, erlotinib, reference compound] | – | – | – | – | – | – | 1.14 | 2.55 ± 0.19 | – | –
N[C@@H](Cc1ccccc1)C(=O)Nn1c(-c2ccc(F)cc2)nc2ccc(F)cc2c1=O [Compound G, (S)-2-amino-N-(6-fluoro-2-(4-fluorophenyl)-4-oxoquinazolin-3(4H)-yl)-3-phenylpropanamide] | 0.44 ± 0.01 | 24.7 ± 1.7 | 0.02 ± 0.07 | more selective to MCF-7 than MDA-MBA-231; also recorded: MCF-7 selective | 56.07 ± 0.15 | 245 to 247 | – | – | 0.16397 ± 7e-05 | –
NCC(=O)Nn1c(-c2ccc(F)cc2)nc2ccc(F)cc2c1=O [A, 2-amino-N-(6-fluoro-2-(4-fluorophenyl)-4-oxoquinazolin-3(4H)-yl)acetamide] | 25 ± 1.61 | 16.3 ± 1.21 | 1.53 ± 0.12 | more selective to MDA-MBA-231 than MCF-7; also recorded: MDA-MBA-231 selective | 0.65 ± 0.05 | 236 to 238 | – | – | – | –
N[C@@H](CCC(=O)O)C(=O)Nn1c(-c2ccc(F)cc2)nc2ccc(F)cc2c1=O [Compound E, (S)-4-(6-fluoro-2-(4-fluorophenyl)-4-oxoquinazolin-3(4H)-ylcarbamoyl)-4-aminobutanoic acid] | 12.4 ± 5.73 | 0.43 ± 0.02 | 28.93 ± 0.08 | more selective to MDA-MBA-231 than MCF-7; also recorded: MDA-MBA-231 selective | 0.03 ± 0.11 | 244 to 246 | – | – | 0.54538 ± 4e-05 | 6.24
O=C(Nn1c(-c2ccc(F)cc2)nc2ccc(F)cc2c1=O)C1CCCN1 (centres unmarked) [H, N-(6-fluoro-2-(4-fluorophenyl)-4-oxoquinazolin-3(4H)-yl)pyrrolidine-2-carboxamide] | 1.28 ± 0.03 | 12 ± 1.33 | 0.11 ± 0.23 | more selective to MCF-7 than MDA-MBA-231; also recorded: MCF-7 selective | 9.34 ± 0.02 | 235 to 237 | – | – | – | –
